# From patent US20070191491A1, “[…] OF STORED GOODS, ENCLOSURES, […] WORKS OF ART, WITH SULPHUR COMPOUNDS” (Arkema France, priority 2002, published 2007)
# What was measured:
# Sitophilus granarius = assay: Efficacy of DMDS in a silo of wheat grains infested with Sitophilus granarius (adult mortality, % NER); type: in vivo; details: for Total No. of insects emerged: untreated control 271
# Procedure: (§1) These two organisms are Sitophilus granarius and Sitophilus orizae.
# (§2) Dimensions of the silo: • total height: 40 cm • total volume: 3.3 l • filling level: 75%, that is a grain height of […].
# (§3) 99 mg of pure DMDS are deposited at the surface of the grains using a syringe. The samples collected consist of bundles of 50 g of wheat containing all the stages of development of the pathogenic organisms. After degassing by aeration of the silo at the times T, the bundles of wheat are screened and the adults are counted immediately after screening (D+0) and after 14 days (D+14). The wheat containing the other stages of development is then examined for 5 weeks.
# The products CT of the concentrations C of DMDS by the times of measurement T are determined and the efficacy of the treatment in relation to the 2 pathogenic organisms studied for all the stages of development is monitored as a function of these products CT. The results are expressed: • as a percentage of the adult mortality at the times (D+0) and (D+14). • as a percentage of net emergence reduction (% NER) relative to an untreated control batch for the different stages of development of these organisms (that is to say eggs and 2nd generation, eggs and 1st stage larvae, 1st and 2nd stage larvae, 2nd and 3rd stage larvae, 3rd and 4th stage larvae, 4th stage larvae and nymphs), which corresponds to the following formula: % NER=(number of insects which emerged live from the control batch−number of insects which emerged live from the treated batch)/(number of insects which emerged live from the control batch).
# Sitophilus orizae = assay: Efficacy of DMDS in a silo of wheat grains infested with Sitophilus orizae; type: in vivo; details: same trial conditions, 20° C.
# Procedure: as §1, §2, §3
# The products CT of the concentrations C of DMDS by the times of measurement T are determined and the efficacy of the treatment in relation to the 2 pathogenic organisms studied for all the stages of development is monitored as a function of these products CT. […]
# Under the same trial conditions, this time on organisms of the Sitophilus orizae type, similar results are obtained. The pesticidal efficacy of DMDS against the pathogenic organism Sitophilus orizae is evaluated in terms of the product CT at about 100 ghm^−3 (useful CT).
structure (smiles),measurement,setting,value
"CSSC [DMDS, dimethyl disulphide]",% NER Eggs and 2nd generation,"Sitophilus granarius; CT 5.8 gh.m^−3, 20° C.",13%
same,% NER Eggs and Ist stage larvae,"Sitophilus granarius; CT 5.8 gh.m^−3, 20° C.",41%
same,% NER IIIrd and IVth stage larvae,"Sitophilus granarius; CT 5.8 gh.m^−3, 20° C.",3%
same,% NER IInd and IIIrd stage larvae,"Sitophilus granarius; CT 5.8 gh.m^−3, 20° C.",13%
same,% NER IVth stage larvae and nymphs,"Sitophilus granarius; CT 5.8 gh.m^−3, 20° C.",21%
same,% NER Ist and IInd stage larvae,"Sitophilus granarius; CT 5.8 gh.m^−3, 20° C.",20%
same,% adult mortality D + 0,"Sitophilus granarius; CT 5.8 gh.m^−3, 20° C.",0%
same,% adult mortality D + 14,"Sitophilus granarius; CT 5.8 gh.m^−3, 20° C.",8%
same,Total % NER,"Sitophilus granarius; CT 5.8 gh.m^−3, 20° C.",25%
same,Total No. of insects emerged,"Sitophilus granarius; CT 5.8 gh.m^−3, 20° C.",202
same,% NER Eggs and 2nd generation,"Sitophilus granarius; CT 6.1 gh.m^−3, 20° C.",33%
same,% NER Eggs and Ist stage larvae,"Sitophilus granarius; CT 6.1 gh.m^−3, 20° C.",5%
same,% NER IIIrd and IVth stage larvae,"Sitophilus granarius; CT 6.1 gh.m^−3, 20° C.",19%
same,% NER IInd and IIIrd stage larvae,"Sitophilus granarius; CT 6.1 gh.m^−3, 20° C.",16%
same,% NER IVth stage larvae and nymphs,"Sitophilus granarius; CT 6.1 gh.m^−3, 20° C.",54%
same,% NER Ist and IInd stage larvae,"Sitophilus granarius; CT 6.1 gh.m^−3, 20° C.",80%
same,% adult mortality D + 0,"Sitophilus granarius; CT 6.1 gh.m^−3, 20° C.",3%
same,% adult mortality D + 14,"Sitophilus granarius; CT 6.1 gh.m^−3, 20° C.",9%
same,Total % NER,"Sitophilus granarius; CT 6.1 gh.m^−3, 20° C.",23%
same,Total No. of insects emerged,"Sitophilus granarius; CT 6.1 gh.m^−3, 20° C.",208
same,% NER Eggs and 2nd generation,"Sitophilus granarius; CT 15.0 gh.m^−3, 20° C.",25%
same,% NER Eggs and Ist stage larvae,"Sitophilus granarius; CT 15.0 gh.m^−3, 20° C.",54%
same,% NER IIIrd and IVth stage larvae,"Sitophilus granarius; CT 15.0 gh.m^−3, 20° C.",26%
same,% NER IInd and IIIrd stage larvae,"Sitophilus granarius; CT 15.0 gh.m^−3, 20° C.",71%
same,% NER IVth stage larvae and nymphs,"Sitophilus granarius; CT 15.0 gh.m^−3, 20° C.",75%
same,% NER Ist and IInd stage larvae,"Sitophilus granarius; CT 15.0 gh.m^−3, 20° C.",88%
same,% adult mortality D + 0,"Sitophilus granarius; CT 15.0 gh.m^−3, 20° C.",64%
same,% adult mortality D + 14,"Sitophilus granarius; CT 15.0 gh.m^−3, 20° C.",93%
same,Total % NER,"Sitophilus granarius; CT 15.0 gh.m^−3, 20° C.",54%
same,Total No. of insects emerged,"Sitophilus granarius; CT 15.0 gh.m^−3, 20° C.",126
same,% NER Eggs and 2nd generation,"Sitophilus granarius; CT 26.9 gh.m^−3, 20° C.",20%
same,% NER Eggs and Ist stage larvae,"Sitophilus granarius; CT 26.9 gh.m^−3, 20° C.",79%
same,% NER IIIrd and IVth stage larvae,"Sitophilus granarius; CT 26.9 gh.m^−3, 20° C.",65%
same,% NER IInd and IIIrd stage larvae,"Sitophilus granarius; CT 26.9 gh.m^−3, 20° C.",94%
same,% NER IVth stage larvae and nymphs,"Sitophilus granarius; CT 26.9 gh.m^−3, 20° C.",92%
same,% NER Ist and IInd stage larvae,"Sitophilus granarius; CT 26.9 gh.m^−3, 20° C.",88%
same,% adult mortality D + 0,"Sitophilus granarius; CT 26.9 gh.m^−3, 20° C.",92%
same,% adult mortality D + 14,"Sitophilus granarius; CT 26.9 gh.m^−3, 20° C.",92%
same,Total % NER,"Sitophilus granarius; CT 26.9 gh.m^−3, 20° C.",72%
same,Total No. of insects emerged,"Sitophilus granarius; CT 26.9 gh.m^−3, 20° C.",75
same,% NER Eggs and 2nd generation,"Sitophilus granarius; CT 50.5 gh.m^−3, 20° C.",93%
same,% NER Eggs and Ist stage larvae,"Sitophilus granarius; CT 50.5 gh.m^−3, 20° C.",100%
same,% NER IIIrd and IVth stage larvae,"Sitophilus granarius; CT 50.5 gh.m^−3, 20° C.",97%
same,% NER IInd and IIIrd stage larvae,"Sitophilus granarius; CT 50.5 gh.m^−3, 20° C.",100%
same,% NER IVth stage larvae and nymphs,"Sitophilus granarius; CT 50.5 gh.m^−3, 20° C.",100%
same,% NER Ist and IInd stage larvae,"Sitophilus granarius; CT 50.5 gh.m^−3, 20° C.",100%
same,% adult mortality D + 0,"Sitophilus granarius; CT 50.5 gh.m^−3, 20° C.",100%
same,% adult mortality D + 14,"Sitophilus granarius; CT 50.5 gh.m^−3, 20° C.",100%
same,Total % NER,"Sitophilus granarius; CT 50.5 gh.m^−3, 20° C.",99%
same,Total No. of insects emerged,"Sitophilus granarius; CT 50.5 gh.m^−3, 20° C.",4
same,% NER Eggs and 2nd generation,"Sitophilus granarius; CT 88.4 gh.m^−3, 20° C.",95%
same,% NER Eggs and Ist stage larvae,"Sitophilus granarius; CT 88.4 gh.m^−3, 20° C.",100%
same,% NER IIIrd and IVth stage larvae,"Sitophilus granarius; CT 88.4 gh.m^−3, 20° C.",100%
same,% NER IInd and IIIrd stage larvae,"Sitophilus granarius; CT 88.4 gh.m^−3, 20° C.",100%
same,% NER IVth stage larvae and nymphs,"Sitophilus granarius; CT 88.4 gh.m^−3, 20° C.",100%
same,% NER Ist and IInd stage larvae,"Sitophilus granarius; CT 88.4 gh.m^−3, 20° C.",100%
same,% adult mortality D + 0,"Sitophilus granarius; CT 88.4 gh.m^−3, 20° C.",100%
same,% adult mortality D + 14,"Sitophilus granarius; CT 88.4 gh.m^−3, 20° C.",100%
same,Total % NER,"Sitophilus granarius; CT 88.4 gh.m^−3, 20° C.",99%
same,Total No. of insects emerged,"Sitophilus granarius; CT 88.4 gh.m^−3, 20° C.",2
same,% NER Eggs and 2nd generation,"Sitophilus granarius; CT 160.4 gh.m^−3, 20° C.",100%
same,% NER Eggs and Ist stage larvae,"Sitophilus granarius; CT 160.4 gh.m^−3, 20° C.",100%
same,% NER IIIrd and IVth stage larvae,"Sitophilus granarius; CT 160.4 gh.m^−3, 20° C.",100%
same,% NER IInd and IIIrd stage larvae,"Sitophilus granarius; CT 160.4 gh.m^−3, 20° C.",100%
same,% NER IVth stage larvae and nymphs,"Sitophilus granarius; CT 160.4 gh.m^−3, 20° C.",100%
same,% NER Ist and IInd stage larvae,"Sitophilus granarius; CT 160.4 gh.m^−3, 20° C.",100%
same,% adult mortality D + 0,"Sitophilus granarius; CT 160.4 gh.m^−3, 20° C.",100%
same,% adult mortality D + 14,"Sitophilus granarius; CT 160.4 gh.m^−3, 20° C.",100%
same,Total % NER,"Sitophilus granarius; CT 160.4 gh.m^−3, 20° C.",100%
same,Total No. of insects emerged,"Sitophilus granarius; CT 160.4 gh.m^−3, 20° C.",0
same,mortality for the majority of the stages,Sitophilus granarius; CT values greater than 50 gh.m^−3,100%
same,mortality for all the stages of development,Sitophilus granarius; product CT of 160 gh.m^−3,100%
same,pesticidal efficacy in terms of the product CT (useful CT),"Sitophilus granarius; wheat silo, 20° C.",about 100 ghm^−3
same,pesticidal efficacy in terms of the product CT (useful CT),Sitophilus orizae,about 100 ghm^−3
